# Data from the OPERA property sets (Mansouri et al. 2018).
# Conditions: not given
Compound,logP,solubility [mM]
CNS(=O)(=O)Cc1ccc2[nH]cc(CCN(C)C)c2c1,0.93,
Nc1cccc2c(N)cccc12,0.89,
CC(C)Oc1c(Br)c(Br)n(C)c1C(=O)Nc1nn[nH]n1,2.52,
NS(=O)(=O)c1nn2c(=Nc3ccc(Cl)cc3)snc2s1,3.63,
O=P(N1CCCC1)(N1CCCC1)N1CCCC1,1.67,
CNc1ncnc2c1ncn2C1OC(CO)CC1F (stereo not drawn),0.27,
C[C@H](CCC(=O)O)[C@H]1CC[C@H]2[C@@H]3CC[C@@H]4C[C@H](O)CC[C@]4(C)[C@H]3C[C@H](O)[C@]12C,3.5,
CC1=C(C)C(=O)C=CC1=O,1.23,
CN(C)CCc1ccccn1,1.12,
CCNc1nc(N)nc(Cl)n1,1.15,3.86
Cc1ccccc1OCCNc1ccccc1C(N)=O,2.94,
O=Cc1ccc(F)cc1,1.54,
CN(C)P(=O)(N(C)C)N1CCCC1,0.82,
ClC1=CC2(Cl)C3C(Cl)C(Cl)C(Cl)C3C1(Cl)C2(Cl)Cl (stereo not drawn),5.91,
COc1cccc(Nc2ccccc2C(=O)O)c1,4.31,
CCCCCCOCCOCCO,1.7,
CS(=O)(=O)c1cccc2ccccc12,1.74,
CCCCOCCOCCOCCCC,1.92,
COc1ncnc2c1ncn2C1OC(COC(=O)c2ccccc2)C(O)C1OC(=O)c1ccccc1 (stereo not drawn),3.39,
CSCCCOc1ccc([N+](=O)[O-])cc1,3.24,
CCOc1ccccc1NCc1cnc2nc(N)nc(N)c2c1C,2.07,
O=C1CCCC1,0.38,
NC(=O)CN1CCCC1=O,-1.54,

Compound,logP,solubility [mM]
COC(=O)[C@@H](N)Cc1ccc(O)cc1,0.29,
OCCCNc1ccccc1,0.57,
Cc1cnc2c(C(=O)O)c(Cl)ccc2c1,0.78,
CCCCCCCCCCOC(=O)c1ccccc1C(=O)OCCCCCCCCCC,9.05,
COc1nc(NC(C)C)nc(NC(C)C)n1,2.99,
CCN(CC)C(=O)CCC(=O)OCn1ncc2c(O)ncnc21,-0.22,
CCC(O)(C(=O)O)c1ccc(CC(C)C)cc1 (stereo not drawn),3.37,
CC(C)CN(CC(C)C)N=O,2.34,
C[C@H](CCC(=O)NCC(=O)O)[C@H]1CC[C@H]2[C@@H]3[C@H](O)C[C@@H]4C[C@H](O)CC[C@]4(C)[C@H]3C[C@H](O)[C@]12C,1.65,
CC1=CCC(=C(C)C)CC1,4.47,
CC[C@H](C)C(=O)O[C@H]1C[C@H](O)C=C2C=C[C@H](C)[C@H](CC[C@@H](O)C[C@@H](O)CC(=O)[O-])[C@H]21.[Na+],-0.23,
CCN(CC)CCCN=c1cc2n(-c3ccc(Cl)cc3)c3ccccc3nc-2cc1Nc1ccc(Cl)cc1,8.05,
CC(C)(O)C(=O)Nc1ccc([N+](=O)[O-])cc1,1.61,
CC1=NS(=O)(=O)c2cnccc2N1,-0.41,
COc1cccc(N=c2snc3sc(S(N)(=O)=O)nn23)c1,2.66,
Cc1cc(O)cc(C)c1Cl,3.27,
CCN(CC)P(=O)(N(C)C)N(C)C,0.66,
COc1cc(C(=O)NCc2ccc(OCCN(C)C)cc2)cc(OC)c1OC,2.29,
COc1ccc(C=NNC(=N)N)cc1,0.29,
Cc1c(Cl)ccc(Cc2c(Cl)cccc2Cl)c1Cl,7.2,
CC1CCCCC1O (stereo not drawn),1.82,
CCOC(=O)C1CNC(=O)CC1C(=O)OCC (stereo not drawn),-0.03,
CN1CC=C(c2ccncc2)CC1,1.25,

Compound,logP,solubility [mM]
CCCOc1ccc([N+](=O)[O-])cc1NC(C)=O,1.6,
COCC(C)OC(C)=O (stereo not drawn),0.56,
O=[N+]([O-])c1c(Cl)cc(Cl)cc1Cl,3.69,
O=[N+]([O-])c1cc(C2CCCCC2)c(O)c([N+](=O)[O-])c1,4.12,
COc1ccc(-c2cc(C#N)c(Cl)nc2C)cc1OC,2.86,
Nc1ccc2c(c1)Cc1cc(Br)ccc1-2,3.92,
Clc1cc(Cl)cc(O[Si]23OCCN(CCO2)CCO3)c1,1.22,
O=c1[nH]cnc2c1ncn2C1CC(O)C(CO)O1 (stereo not drawn),-1.71,
CCCS(=O)c1ccc2[nH]c(NC(=O)OC)nc2c1 (stereo not drawn),1.27,
CCCCCCCCCCCCCCCCCCCCCC(=O)O,,4.7e-05
CCCn1ccc(=O)c(O)c1,-0.17,
COC(=O)C(C#N)=Cc1ccco1,1.65,
COc1cc([N+](=O)[O-])c2ncccc2c1,1.87,
CCCCC(=O)OCC1OC(n2cnc3c(OC)ncnc32)C(OC(=O)CCCC)C1O (stereo not drawn),3.58,
COc1cc(OC)ncn1,0.96,
COc1cc(Cl)c(Cl)c(Cl)c1,4.22,
O=C(NCc1ccc(F)cc1)C(=O)c1c[nH]c2ccccc12,2.88,
O=[N+]([O-])c1ccc(Cl)cc1Cl,3.07,
Cc1cccc(C)c1NC(=O)c1cc(S(N)(=O)=O)c(Cl)cc1O,2.19,
CCCC[N+](C)(CCCC)CCCC.[I-],0.26,
NS(=O)(=O)c1nn2c(=Nc3cccc(F)c3)snc2s1,3.06,
Brc1cccc(O[Si]23OCCN(CCO2)CCO3)c1,0.26,

# Same assay, conditions: 20 °C
row,Compound,solubility [mM]
1,CC(C)OC(=O)c1cc(-c2nn(C)c(C(F)(F)F)c2Br)c(F)cc1Cl,0.000119
2,CC1=C(c2ccccc2)C(=O)N(C(C)(C)c2cc(Cl)cc(Cl)c2)CO1,0.000478
3,CC(CO)(CO)[N+](=O)[O-],5920

# Same assay, conditions: 22 °C
row,Compound,solubility [mM]
1,Clc1c(Cl)c(Cl)c2ccccc2c1Cl,1.6e-05

# Same assay, conditions: 22.0 °C
row,Compound,log10 OH rate constant (cm³/molecule/s)
1,CC(C)CO[N+](=O)[O-],-12

# Same assay, conditions: 23 °C
row,Compound,solubility [mM]
1,CC1=CCC(=C(C)C)CC1,0.0697

# Same assay, conditions: 23.0 °C
row,Compound,log10 OH rate constant (cm³/molecule/s)
1,CCCCOCCOCCO,-10.1
2,O=C1CC=CO1,-10.4
3,CCCCCC=O,-10.5

# Same assay, conditions: 24.0 °C
row,Compound,log10 OH rate constant (cm³/molecule/s)
1,c1ccc(Oc2ccccc2)cc1,-11

# Same assay, conditions: 25 °C
row,Compound,solubility [mM]
1,Cl[C@H]1[C@H](Cl)[C@@H](Cl)[C@@H](Cl)[C@H](Cl)[C@H]1Cl (racemic),0.00942
2,OCCCc1ccccc1,41.7
3,O=[N+]([O-])c1ccccc1,17
4,CC(C)(C)Br,4.38
5,CC(C)CO[N+](=O)[O-],11.2
6,O=C(O)c1cccc(C(=O)O)c1,0.602
7,CCCCCN(CCCCC)CCCCC,0.0928
8,CCCCN(CCO)CCCC,23.1
9,ClCOCCl,191
10,C=C(C)C(=O)OCCCC,5.63
11,Brc1cc(Br)c(OCCOc2c(Br)cc(Br)cc2Br)c(Br)c1,0.000291
12,Clc1cc2c(oc3c(Cl)c(Cl)c(Cl)c(Cl)c32)c(Cl)c1Cl,3.3e-09
13,COCC(C)OC(C)=O (stereo not drawn),1500
14,Cc1cccc(C)c1N,68
15,CCCCOCCOC(=O)COc1ccc(Cl)cc1Cl,0.0374
16,CC1CO1 (stereo not drawn),10200
17,Cc1cccc(C)c1,1.52
18,c1ccc(Oc2ccccc2)cc1,0.106
19,Clc1ccc(C(c2ccccc2Cl)C(Cl)Cl)cc1 (stereo not drawn),0.000312

# Same assay, conditions: 25.0 °C
row,Compound,log10 OH rate constant (cm³/molecule/s)
1,Cl[C@H]1[C@H](Cl)[C@@H](Cl)[C@@H](Cl)[C@H](Cl)[C@H]1Cl (racemic),-12.8
2,FC(F)Br,-14
3,Oc1ccc2ccccc2c1,-9.77
4,C1CC2CCCC2C1 (stereo not drawn),-11
5,C=CC1(C)CCC(O)O1 (stereo not drawn),-10.1
6,CCCC(C)=O,-11.3
7,CC1=CCC(=C(C)C)CC1,-9.65
8,O=CC(F)F,-11.8
9,CI,-13.1
10,C=C1CCC2(C(C)C)CC12 (stereo not drawn),-9.93
11,CC(C)OCCO,-10.7
12,CC1(C)C2CCC(=O)C1C2 (stereo not drawn),-10.8
13,CCCCCBr,-11.4

# Same assay, conditions: 27.0 °C
row,Compound,log10 OH rate constant (cm³/molecule/s)
1,Cc1ccc(C)o1,-9.88
2,O=Cc1ccco1,-10.5
